The test system of one series is HL-60. Kind of series: cells. Particulars: Homo sapiens, HL-60, 72 h. Format: functional.
For the next series, the system named is Jurkat. Kind of series: cells. Format: functional. The settings on record: Homo sapiens, 72 h.
The nature of the next series: in vitro. Particulars: human, HEK293 cells.
For the next series, the system named is HeLa. Put plainly: cells. Format: functional. Particulars: Homo sapiens, 72 h.
For a further series, the system named is MCF7. Kind of series: cells. The settings on record: Homo sapiens, MCF7, 72 h. Format: functional.
Series [1] can be described thus: Growth inhibition of human HEK293 cells at 100 uM after 72 hrs by XTT assay. Particulars: read-out: GI. Format: cell-based. In general terms: Tetrazolium assays rely on reduction of a dye to a coloured formazan, in cell work by metabolically active cells.
In series [2] the target is T1, Protein deacetylase HDAC6 (Homo sapiens) (UniProt Q9UBN7).
T1 sequence (whole entry): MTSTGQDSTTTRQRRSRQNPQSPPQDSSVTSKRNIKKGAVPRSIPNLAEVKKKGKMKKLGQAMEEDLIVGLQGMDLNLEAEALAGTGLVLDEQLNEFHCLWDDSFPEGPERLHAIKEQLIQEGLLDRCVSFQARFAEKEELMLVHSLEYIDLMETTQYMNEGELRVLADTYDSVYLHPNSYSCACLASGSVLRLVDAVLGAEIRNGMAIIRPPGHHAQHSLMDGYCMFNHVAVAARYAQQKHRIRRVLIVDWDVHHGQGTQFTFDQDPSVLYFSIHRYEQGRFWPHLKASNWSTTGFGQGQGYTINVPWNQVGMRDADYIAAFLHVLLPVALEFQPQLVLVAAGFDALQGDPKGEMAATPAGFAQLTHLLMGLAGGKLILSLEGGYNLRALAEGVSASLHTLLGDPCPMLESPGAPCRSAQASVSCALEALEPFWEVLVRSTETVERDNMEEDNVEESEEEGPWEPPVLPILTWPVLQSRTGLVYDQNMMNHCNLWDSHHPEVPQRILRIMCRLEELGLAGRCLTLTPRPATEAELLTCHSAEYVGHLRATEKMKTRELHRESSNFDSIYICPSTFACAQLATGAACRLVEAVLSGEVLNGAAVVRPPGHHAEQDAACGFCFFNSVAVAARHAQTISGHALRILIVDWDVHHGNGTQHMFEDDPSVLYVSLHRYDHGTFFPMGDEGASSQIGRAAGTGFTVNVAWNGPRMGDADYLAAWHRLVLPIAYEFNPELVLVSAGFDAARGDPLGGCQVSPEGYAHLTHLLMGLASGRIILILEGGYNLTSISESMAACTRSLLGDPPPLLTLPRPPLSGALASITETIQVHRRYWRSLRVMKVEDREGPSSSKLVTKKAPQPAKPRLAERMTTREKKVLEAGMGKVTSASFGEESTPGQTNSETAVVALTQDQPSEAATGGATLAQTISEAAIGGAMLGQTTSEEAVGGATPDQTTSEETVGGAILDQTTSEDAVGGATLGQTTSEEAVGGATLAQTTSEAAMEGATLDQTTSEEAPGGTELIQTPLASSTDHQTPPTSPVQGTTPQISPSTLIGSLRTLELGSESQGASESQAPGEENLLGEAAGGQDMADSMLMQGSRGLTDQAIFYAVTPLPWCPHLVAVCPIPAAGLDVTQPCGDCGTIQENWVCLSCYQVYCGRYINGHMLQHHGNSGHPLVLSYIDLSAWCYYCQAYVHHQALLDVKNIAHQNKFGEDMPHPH
Kind of series: Inhibition of recombinant HDAC6 using Ac-Lys(Ac)-AMC as substrate at 20 uM after 30 mins by fluorescence analysis.

In series [3] the target is T2, Protein deacetylase HDAC6 (Homo sapiens, UniProt Q9UBN7).
T2 sequence (Q9UBN7 whole entry): T1 sequence (whole entry)
Put plainly: Inhibition of recombinant HDAC6 using Ac-Lys(Ac)-AMC as substrate after 30 mins by fluorescence analysis.

Series [4] concerns the target T3, Histone deacetylase 2 (Homo sapiens, UniProt Q92769). Kind of series: Inhibition of recombinant HDAC2 using Ac-Lys(Ac)-AMC as substrate after 30 mins by fluorescence analysis.
The target in series [5] is T4, Histone deacetylase 3/Nuclear receptor corepressor 2 (HDAC3/NCoR2) (Homo sapiens, UniProt O15379). Kind of series: Inhibition of recombinant HDAC3/NCoR2 using Ac-Lys(Ac)-AMC as substrate after 30 mins by fluorescence analysis. Format: protein-complex assay.
T4 sequence (O15379 whole entry): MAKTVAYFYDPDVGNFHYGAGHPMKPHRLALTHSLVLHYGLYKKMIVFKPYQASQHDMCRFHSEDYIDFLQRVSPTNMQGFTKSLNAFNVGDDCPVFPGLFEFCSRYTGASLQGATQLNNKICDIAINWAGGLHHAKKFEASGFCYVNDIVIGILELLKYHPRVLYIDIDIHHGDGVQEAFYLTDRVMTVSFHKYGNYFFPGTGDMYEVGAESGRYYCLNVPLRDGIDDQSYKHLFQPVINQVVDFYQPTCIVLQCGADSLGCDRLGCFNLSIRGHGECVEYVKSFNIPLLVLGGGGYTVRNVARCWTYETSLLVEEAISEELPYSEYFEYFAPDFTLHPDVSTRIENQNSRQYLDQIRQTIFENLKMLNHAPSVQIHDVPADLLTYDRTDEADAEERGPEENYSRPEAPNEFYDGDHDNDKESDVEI
T4 sequence (Q9Y618 whole entry, further chain): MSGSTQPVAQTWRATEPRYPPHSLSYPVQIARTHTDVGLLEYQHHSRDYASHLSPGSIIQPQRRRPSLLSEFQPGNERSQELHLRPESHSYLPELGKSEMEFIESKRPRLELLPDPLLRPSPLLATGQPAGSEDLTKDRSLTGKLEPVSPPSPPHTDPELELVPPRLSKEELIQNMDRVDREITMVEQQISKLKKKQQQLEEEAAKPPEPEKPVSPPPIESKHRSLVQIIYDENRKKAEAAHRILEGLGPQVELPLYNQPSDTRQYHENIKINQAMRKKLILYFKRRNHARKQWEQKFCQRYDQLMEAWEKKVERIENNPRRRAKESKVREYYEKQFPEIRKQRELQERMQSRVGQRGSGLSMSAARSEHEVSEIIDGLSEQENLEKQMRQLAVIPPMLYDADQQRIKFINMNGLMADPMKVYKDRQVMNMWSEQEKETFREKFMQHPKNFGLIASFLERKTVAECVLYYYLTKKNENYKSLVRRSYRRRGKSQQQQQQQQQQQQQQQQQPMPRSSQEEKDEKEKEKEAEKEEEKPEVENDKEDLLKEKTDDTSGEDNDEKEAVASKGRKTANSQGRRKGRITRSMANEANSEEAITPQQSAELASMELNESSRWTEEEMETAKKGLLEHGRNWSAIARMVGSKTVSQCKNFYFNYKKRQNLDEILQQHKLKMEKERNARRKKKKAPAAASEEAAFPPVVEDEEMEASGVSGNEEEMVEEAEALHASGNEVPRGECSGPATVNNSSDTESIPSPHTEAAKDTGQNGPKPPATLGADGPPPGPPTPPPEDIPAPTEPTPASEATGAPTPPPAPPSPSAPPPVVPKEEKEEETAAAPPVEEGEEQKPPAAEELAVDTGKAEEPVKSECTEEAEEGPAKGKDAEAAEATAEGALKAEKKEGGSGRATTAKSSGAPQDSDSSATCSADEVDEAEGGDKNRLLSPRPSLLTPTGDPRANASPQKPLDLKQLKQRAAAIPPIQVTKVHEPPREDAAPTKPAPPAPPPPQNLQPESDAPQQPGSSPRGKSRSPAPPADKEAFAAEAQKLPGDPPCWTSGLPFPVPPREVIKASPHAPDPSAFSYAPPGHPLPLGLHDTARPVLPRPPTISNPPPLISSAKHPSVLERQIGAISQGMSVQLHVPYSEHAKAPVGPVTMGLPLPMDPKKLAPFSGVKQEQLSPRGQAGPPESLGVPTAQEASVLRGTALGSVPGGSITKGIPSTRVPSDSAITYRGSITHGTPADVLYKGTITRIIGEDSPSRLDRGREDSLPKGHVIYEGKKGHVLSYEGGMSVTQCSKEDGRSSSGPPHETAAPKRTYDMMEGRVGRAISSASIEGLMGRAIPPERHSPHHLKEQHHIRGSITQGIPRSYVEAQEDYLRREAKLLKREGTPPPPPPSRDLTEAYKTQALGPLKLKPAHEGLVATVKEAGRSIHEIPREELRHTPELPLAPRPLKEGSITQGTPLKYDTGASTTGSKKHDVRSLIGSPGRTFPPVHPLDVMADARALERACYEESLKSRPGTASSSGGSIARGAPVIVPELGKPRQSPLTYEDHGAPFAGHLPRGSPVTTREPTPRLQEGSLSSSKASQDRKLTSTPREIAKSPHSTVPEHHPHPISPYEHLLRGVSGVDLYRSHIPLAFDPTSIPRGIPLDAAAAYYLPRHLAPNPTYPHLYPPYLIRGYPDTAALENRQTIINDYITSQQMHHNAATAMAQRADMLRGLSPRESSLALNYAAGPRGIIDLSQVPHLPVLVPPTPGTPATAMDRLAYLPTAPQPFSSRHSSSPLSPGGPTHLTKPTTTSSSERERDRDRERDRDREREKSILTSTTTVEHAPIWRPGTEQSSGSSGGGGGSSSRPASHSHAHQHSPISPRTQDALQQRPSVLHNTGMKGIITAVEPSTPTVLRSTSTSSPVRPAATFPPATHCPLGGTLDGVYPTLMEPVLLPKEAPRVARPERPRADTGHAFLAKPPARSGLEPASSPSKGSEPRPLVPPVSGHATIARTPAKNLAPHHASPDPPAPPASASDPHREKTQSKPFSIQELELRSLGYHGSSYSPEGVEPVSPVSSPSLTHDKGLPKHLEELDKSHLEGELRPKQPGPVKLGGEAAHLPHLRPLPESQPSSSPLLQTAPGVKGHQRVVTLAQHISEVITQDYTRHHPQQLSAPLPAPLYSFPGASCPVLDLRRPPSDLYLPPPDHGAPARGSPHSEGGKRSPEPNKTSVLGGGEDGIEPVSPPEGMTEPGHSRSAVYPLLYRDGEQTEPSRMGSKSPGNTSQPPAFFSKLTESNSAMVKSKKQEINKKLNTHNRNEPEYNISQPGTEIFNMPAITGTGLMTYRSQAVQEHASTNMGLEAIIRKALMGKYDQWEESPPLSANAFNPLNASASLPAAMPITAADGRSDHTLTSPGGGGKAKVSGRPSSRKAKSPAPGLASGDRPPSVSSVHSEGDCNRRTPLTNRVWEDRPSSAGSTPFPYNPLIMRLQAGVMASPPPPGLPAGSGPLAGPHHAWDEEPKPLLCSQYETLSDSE
Series [6] deals with T5, Histone deacetylase 1 (Homo sapiens, UniProt Q13547). Put plainly: Inhibition of recombinant HDAC1 using Ac-Lys(Ac)-AMC as substrate after 30 mins by fluorescence analysis.
T5 sequence (Q13547 whole entry): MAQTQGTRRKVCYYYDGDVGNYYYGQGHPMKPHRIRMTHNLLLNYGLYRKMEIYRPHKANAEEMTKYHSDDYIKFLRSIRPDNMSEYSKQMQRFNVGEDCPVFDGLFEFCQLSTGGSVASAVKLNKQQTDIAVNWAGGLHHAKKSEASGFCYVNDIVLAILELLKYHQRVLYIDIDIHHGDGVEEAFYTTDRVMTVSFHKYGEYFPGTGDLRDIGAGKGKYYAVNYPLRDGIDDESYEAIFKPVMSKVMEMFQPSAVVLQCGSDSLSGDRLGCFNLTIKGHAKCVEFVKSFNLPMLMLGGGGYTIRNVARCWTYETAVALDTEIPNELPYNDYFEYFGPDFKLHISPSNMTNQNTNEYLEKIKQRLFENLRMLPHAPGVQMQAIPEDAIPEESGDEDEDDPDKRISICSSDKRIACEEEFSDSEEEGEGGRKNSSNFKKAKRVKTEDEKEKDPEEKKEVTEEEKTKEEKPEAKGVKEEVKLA
The target in series [7] is T5, Histone deacetylase 1. Kind of series: Competitive inhibition of HDAC1 using Ac-Lys(Ac)-AMC as substrate by Lineweaver-Burk plot analysis.
Series [8] addresses T3, Histone deacetylase 2. Kind of series: Ratio of IC50 for valproic acid to compound for recombinant HDAC2 using Ac-Lys(Ac)-AMC as substrate after 30 mins by fluorescence analysis.
For series [9], the target named is T3, Histone deacetylase 2. Kind of series: Competitive inhibition of HDAC2 using Ac-Lys(Ac)-AMC as substrate by Lineweaver-Burk plot analysis.
In series [10] the target is Histone deacetylase (Homo sapiens) (UniProt Q13547+O15379+Q9UBN7+Q92769+Q9UQL6+Q8WUI4+Q9BY41+Q96DB2+P56524+Q9UKV0+Q969S8). Kind of series: Inhibition of HDAC in human Jurkat cells assessed as increase in acetylated histone H3 after 24 hrs by Western blot analysis. Format: cell-based.
Series [11] deals with T6, Histone deacetylase 3/Nuclear receptor corepressor 2 (HDAC3/NCoR2) (Homo sapiens) (UniProt O15379+Q9Y618). Put plainly: Inhibition of recombinant HDAC3/NCoR2 at 1 uM. Format: protein-complex assay.
The target in series [12] is T4, Histone deacetylase 3/Nuclear receptor corepressor 2 (HDAC3/NCoR2). Kind of series: Competitive inhibition of HDAC3/NCoR2 using Ac-Lys(Ac)-AMC as substrate by Lineweaver-Burk plot analysis. Format: protein-complex assay.
Series [13] has as its target T6, Histone deacetylase 3/Nuclear receptor corepressor 2 (HDAC3/NCoR2) (Homo sapiens). Put plainly: Ratio of IC50 for valproic acid to compound for recombinant HDAC3/NCoR2 using Ac-Lys(Ac)-AMC as substrate after 30 mins by fluorescence analysis. Format: protein-complex assay.
Series [14] in a line: Ratio of IC50 for valproic acid to compound for recombinant using Ac-Lys(Ac)-AMC as substrate after 30 mins by fluorescence analysis. Particulars: Homo sapiens.
Series [15] has as its target T5, Histone deacetylase 1. Put plainly: Ratio of IC50 for valproic acid to compound for recombinant HDAC1 using Ac-Lys(Ac)-AMC as substrate after 30 mins by fluorescence analysis.

Where a SMILES comes first, the peptide text is derived from it. [ ]: non-standard residue; d: D form. β3hL = CC(C)C[C@H](N)CC(=O)O; Nva = CCC[C@H](N)C(=O)O

T3 sequence (Q92769 whole entry): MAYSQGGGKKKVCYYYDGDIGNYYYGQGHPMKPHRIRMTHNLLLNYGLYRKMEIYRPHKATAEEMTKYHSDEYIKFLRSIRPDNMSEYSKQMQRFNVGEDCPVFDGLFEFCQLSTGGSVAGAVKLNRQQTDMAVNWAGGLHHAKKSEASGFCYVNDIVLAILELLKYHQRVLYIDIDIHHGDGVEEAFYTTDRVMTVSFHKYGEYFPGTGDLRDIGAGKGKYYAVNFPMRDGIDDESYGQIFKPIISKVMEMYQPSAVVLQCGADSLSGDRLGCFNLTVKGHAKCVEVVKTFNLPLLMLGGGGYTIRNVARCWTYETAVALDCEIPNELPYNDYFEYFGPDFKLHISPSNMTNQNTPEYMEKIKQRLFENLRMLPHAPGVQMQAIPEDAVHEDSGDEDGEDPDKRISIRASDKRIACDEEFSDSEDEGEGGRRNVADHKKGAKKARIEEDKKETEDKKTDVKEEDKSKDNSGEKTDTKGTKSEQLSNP
Description for HL-60: Growth inhibition of human HL60 cells after 72 hrs by XTT assay
Description for HeLa: Growth inhibition of human HeLa cells after 72 hrs by XTT assay
Description for Jurkat: Growth inhibition of human Jurkat cells after 72 hrs by XTT assay
Description for MCF7: Growth inhibition of human MCF7 cells after 72 hrs by XTT assay
Description for in vitro: Growth inhibition of human HEK293 cells after 72 hrs by XTT assay

Consider `CCC(=O)CCCCC[C@@H]1NC(=O)[C@H]2CCCCN2C(=O)[C@H]([C@@H](C)CC)NC(=O)[C@H](Cc2cn(OC)c3ccccc23)NC1=O` [APICIDIN], for which the GI50 (in general, the concentration that inhibits growth by half) in the series with HL-60 was found to be 280 nM; with Jurkat, 830 nM; with HeLa it was 1400 nM; in the series with MCF7, 6800 nM. Halving of growth in the series “in vitro” (GI50 at 72 h) required 11000 nM.

Regarding `CCC[C@@H]1NC(=O)[C@H](C)NC(=O)C[C@H](CC(C)C)NC(=O)[C@H](Cc2c[nH]c3ccccc23)NC1=O` (cyclo(A[Nva]W[β3hL])), the inhibition at 72 h, 100 µM in [1] was found to be 33%. For the same molecule, the inhibition in [2] worked out at 37%. The IC50 (commonly the concentration needed to halve the response being measured) in series [3] was more than 20000 nM; on Histone deacetylase 2 [4], 1500 nM; in [5], 1400 nM; on Histone deacetylase 1 [6] it was 980 nM. Further, the GI50 with HL-60 was determined as 8200 nM; in the series on Jurkat it was 12000 nM; with HeLa it was 81000 nM; in the series with MCF7, 40000 nM. Moreover, the GI50 at 72 h in the series “in vitro” is more than 100000 nM.

Turning to `CCC[C@@H]1NC(=O)[C@H](C)NC(=O)C[C@H](CC(C)C)NC(=O)[C@H](Cc2cn(CN(C)C)c3ccccc23)NC1=O`, the inhibition in series [2] was 46%; in [10] it was “Dose-dependent effect”; in series [11], 60%. For the same molecule, the IC50 is more than 20000 nM in series [3], 1400 nM at Histone deacetylase 2 [4], 800 nM in [5] and 680 nM on Histone deacetylase 1 [6]. For the same molecule, the GI50 is 2800 nM with HL-60, 8100 nM in the series with Jurkat, 62000 nM in the series on HeLa and 47000 nM in the series on MCF7. The Ki – broadly, the equilibrium dissociation constant of an inhibitor or competing ligand from its target – on Histone deacetylase 1 [7] is 49 nM; at Histone deacetylase 2 [9], 33 nM; in series [12], 37 nM. The Ratio IC50 on Histone deacetylase 2 [8] amounted to 40; in [13], 200; in [14] it was 40; on Histone deacetylase 1 [15] it was 40. Growth in the series “in vitro” was halved (GI50 at 72 h) at 100000 nM.

The values are drawn from ChEMBL document CHEMBL2062402, “Discovery of HDAC Inhibitors That Lack an Active Site Zn(2+)-Binding Functional Group” (ACS Med Chem Lett, 2012).
